Each block holds one molecule with its values, some of them ahead of it.
Key:
PDE10 = conditions: from Soderling and Beavo 2000; read-out: IC50 (50% inhibitory concentration) PDE10; cited from earlier work
Human PDE10 = Human PDE10 (Homo sapiens (Human), UniProt Q9Y233); assay: Inhibition of Human PDE10 (Example 13, SPA assay); assay type: biochemical; conditions: substrate 125 nM H-cGMP; all three compounds tested in the same experiment
Method: (§1) The PDE assay medium consisted of (final concentrations); 50 mM Tris-HCL, pH 7.5; 8.3 mM MgCl2; 1.7 mM EGTA; 0.5 mg/mL bovine serum albumin; and substrate (H-cAMP or H-cGMP). The BSA was lyophilized powder, essentially fatty acid free, ≧96% pure from Sigma (A6003).

PDE2A = PDE2A (Homo sapiens (Human), UniProt O00408); assay: PDE selectivity SPA assay, PDE2A; assay type: biochemical; conditions: substrate 37 nM H-cGMP
Method: as §1

PDE5A = PDE5A (Homo sapiens (Human), UniProt O76074); assay: PDE selectivity SPA assay, PDE5A; assay type: biochemical; conditions: substrate 37 nM H-cGMP
Method: as §1

bovine PDE6 = bovine PDE6 (Bos taurus, UniProt P11541+P23439); assay: PDE selectivity assay, PDE6; assay type: biochemical
Method: as §1

PDE10A2 = PDE10A2 (Homo sapiens (Human), UniProt Q9Y233); assay: PDE selectivity SPA assay, PDE10A2; assay type: biochemical; conditions: Table 1 selectivity profile
Method: as §1

Human PDE10, sequence (Q9Y233 267-1055): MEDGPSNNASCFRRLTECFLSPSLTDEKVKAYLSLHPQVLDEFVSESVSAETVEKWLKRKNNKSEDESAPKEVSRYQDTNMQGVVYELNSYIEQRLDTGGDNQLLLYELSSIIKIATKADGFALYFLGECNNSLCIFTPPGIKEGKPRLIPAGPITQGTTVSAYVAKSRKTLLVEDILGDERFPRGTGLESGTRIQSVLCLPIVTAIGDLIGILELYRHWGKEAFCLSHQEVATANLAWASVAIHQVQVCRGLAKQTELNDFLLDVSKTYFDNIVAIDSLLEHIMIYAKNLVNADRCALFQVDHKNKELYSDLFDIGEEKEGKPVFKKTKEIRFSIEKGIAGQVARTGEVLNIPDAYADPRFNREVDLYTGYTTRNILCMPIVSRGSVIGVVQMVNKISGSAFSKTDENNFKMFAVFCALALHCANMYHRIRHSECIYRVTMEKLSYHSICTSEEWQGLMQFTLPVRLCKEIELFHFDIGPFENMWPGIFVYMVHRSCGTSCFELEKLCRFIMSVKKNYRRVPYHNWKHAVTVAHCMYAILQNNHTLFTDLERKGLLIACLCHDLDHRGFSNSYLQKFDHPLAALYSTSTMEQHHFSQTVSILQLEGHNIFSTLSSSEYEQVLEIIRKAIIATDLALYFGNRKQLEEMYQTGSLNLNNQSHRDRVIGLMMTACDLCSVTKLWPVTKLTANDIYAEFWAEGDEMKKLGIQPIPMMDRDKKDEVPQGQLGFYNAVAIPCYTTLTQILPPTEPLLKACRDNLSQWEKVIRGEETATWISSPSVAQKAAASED
PDE10A2, sequence (Q9Y233 267-1055): as above
bovine PDE6, sequence (P11541 2-859 limits assumed): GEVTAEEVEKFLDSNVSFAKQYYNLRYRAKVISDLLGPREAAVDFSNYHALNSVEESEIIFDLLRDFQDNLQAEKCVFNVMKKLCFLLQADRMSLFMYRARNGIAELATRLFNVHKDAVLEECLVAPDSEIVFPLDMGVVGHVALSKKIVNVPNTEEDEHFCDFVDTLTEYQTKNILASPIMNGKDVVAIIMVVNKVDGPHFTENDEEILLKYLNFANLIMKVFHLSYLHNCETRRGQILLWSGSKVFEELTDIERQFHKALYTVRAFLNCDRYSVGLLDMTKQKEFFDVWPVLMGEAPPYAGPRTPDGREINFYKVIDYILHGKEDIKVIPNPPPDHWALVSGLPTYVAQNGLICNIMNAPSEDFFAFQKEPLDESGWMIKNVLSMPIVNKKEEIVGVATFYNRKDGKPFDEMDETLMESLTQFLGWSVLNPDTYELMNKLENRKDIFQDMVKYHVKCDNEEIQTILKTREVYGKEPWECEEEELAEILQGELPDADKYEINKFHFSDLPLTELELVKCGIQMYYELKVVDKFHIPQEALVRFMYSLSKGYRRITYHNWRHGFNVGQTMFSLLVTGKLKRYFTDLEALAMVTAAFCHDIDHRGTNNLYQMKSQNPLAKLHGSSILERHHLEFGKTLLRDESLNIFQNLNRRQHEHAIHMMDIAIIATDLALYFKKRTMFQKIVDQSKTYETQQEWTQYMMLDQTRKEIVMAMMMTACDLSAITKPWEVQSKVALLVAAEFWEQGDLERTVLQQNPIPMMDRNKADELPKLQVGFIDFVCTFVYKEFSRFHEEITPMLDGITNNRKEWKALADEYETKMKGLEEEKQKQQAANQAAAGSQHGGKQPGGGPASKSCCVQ
bovine PDE6, sequence (P23439 2-853 limits assumed): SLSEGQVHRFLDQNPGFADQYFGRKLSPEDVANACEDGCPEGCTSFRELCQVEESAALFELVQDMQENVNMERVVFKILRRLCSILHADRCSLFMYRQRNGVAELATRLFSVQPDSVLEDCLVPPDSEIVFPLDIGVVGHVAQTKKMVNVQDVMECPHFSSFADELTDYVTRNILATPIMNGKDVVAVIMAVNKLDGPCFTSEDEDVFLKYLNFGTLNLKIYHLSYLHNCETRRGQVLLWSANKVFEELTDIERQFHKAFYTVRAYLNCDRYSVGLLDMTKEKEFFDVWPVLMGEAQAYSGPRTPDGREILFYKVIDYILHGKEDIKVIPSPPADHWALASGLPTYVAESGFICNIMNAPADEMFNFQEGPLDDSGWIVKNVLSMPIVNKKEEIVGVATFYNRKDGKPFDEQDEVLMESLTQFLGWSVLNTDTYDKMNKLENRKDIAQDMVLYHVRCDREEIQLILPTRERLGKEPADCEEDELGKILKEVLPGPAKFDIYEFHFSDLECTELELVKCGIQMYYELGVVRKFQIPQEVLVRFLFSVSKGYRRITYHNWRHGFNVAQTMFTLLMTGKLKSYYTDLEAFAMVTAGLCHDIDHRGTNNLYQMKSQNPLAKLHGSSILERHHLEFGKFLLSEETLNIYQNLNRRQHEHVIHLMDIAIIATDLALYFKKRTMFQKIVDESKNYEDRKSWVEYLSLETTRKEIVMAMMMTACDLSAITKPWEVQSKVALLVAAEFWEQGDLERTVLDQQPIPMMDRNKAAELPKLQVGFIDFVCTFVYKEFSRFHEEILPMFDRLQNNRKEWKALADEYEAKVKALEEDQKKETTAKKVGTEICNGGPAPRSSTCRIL
PDE2A, sequence (O00408 whole entry): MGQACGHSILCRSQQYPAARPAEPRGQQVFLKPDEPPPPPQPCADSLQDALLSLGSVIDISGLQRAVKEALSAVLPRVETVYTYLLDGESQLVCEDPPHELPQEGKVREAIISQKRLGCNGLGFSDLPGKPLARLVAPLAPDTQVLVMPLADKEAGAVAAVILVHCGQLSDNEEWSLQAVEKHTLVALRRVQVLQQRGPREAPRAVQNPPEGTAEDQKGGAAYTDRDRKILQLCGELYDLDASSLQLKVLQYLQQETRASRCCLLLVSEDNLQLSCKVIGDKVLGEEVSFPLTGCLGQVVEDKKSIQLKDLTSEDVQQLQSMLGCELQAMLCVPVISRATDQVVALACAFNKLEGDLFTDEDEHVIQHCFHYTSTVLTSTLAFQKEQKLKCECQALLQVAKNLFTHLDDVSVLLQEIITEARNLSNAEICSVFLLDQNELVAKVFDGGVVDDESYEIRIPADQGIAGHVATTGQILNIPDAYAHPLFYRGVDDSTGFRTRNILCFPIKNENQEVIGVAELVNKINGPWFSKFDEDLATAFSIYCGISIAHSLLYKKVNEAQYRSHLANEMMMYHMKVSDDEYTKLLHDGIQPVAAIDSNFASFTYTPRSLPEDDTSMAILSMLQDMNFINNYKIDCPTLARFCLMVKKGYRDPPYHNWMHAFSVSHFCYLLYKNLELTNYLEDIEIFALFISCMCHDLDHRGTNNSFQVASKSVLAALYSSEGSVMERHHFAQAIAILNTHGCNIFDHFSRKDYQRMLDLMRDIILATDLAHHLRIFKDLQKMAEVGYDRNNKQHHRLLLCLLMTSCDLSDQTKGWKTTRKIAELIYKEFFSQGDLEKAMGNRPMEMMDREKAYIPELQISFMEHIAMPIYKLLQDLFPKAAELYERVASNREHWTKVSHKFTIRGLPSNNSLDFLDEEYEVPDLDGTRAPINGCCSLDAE

Compound: CC(C)Cn1c(=O)n(C)c(=O)c2[nH]cnc21 [IBMX]
IC50 (PDE10): 2600 nM

IC50 (Human PDE10): 0.44 nM
Compound: CCO[C@H](C(=O)c1ccc(-c2cc(OC)c(Cl)c(OC)c2)o1)c1ccc(-c2nnc(C)s2)cc1 [Compound 2001, (S)-1-(5-(4-chloro-3,5-dimethoxyphenyl)furan-2-yl)-2-ethoxy-2-(4-(5-methyl-1,3,4-thiadiazol-2-yl)phenyl)ethanone]

IC50 (PDE2A): 545 nM
IC50 (PDE5A): 5740 nM
IC50 (bovine PDE6): > 3000 nM
IC50 (PDE10A2): 0.62 nM
IC50 (Human PDE10): 0.62 nM
Compound: CCOC(C(=O)c1ccc(-c2cc(OC)c(Cl)c(OC)c2)o1)c1ccc(-c2nnc(C)s2)cc1 (racemic) [Compound 1001, 1-(5-(4-chloro-3,5-dimethoxyphenyl)furan-2-yl)-2-ethoxy-2-(4-(5-methyl-1,3,4-thiadiazol-2-yl)phenyl)ethanone]

IC50 (Human PDE10): 5.8 nM
Compound: CCO[C@@H](C(=O)c1ccc(-c2cc(OC)c(Cl)c(OC)c2)o1)c1ccc(-c2nnc(C)s2)cc1 [Compound 3001]

— patent US9493447B2, “Optically active PDE10 inhibitor” (OMEROS CORPORATION, priority 2014, dated 2016)
